Source: patent publication US9409905B2, “Antibacterial compounds and methods for use” (PTC THERAPEUTICS, INC., priority 2011, dated 2016)
In brackets after ≈: the same amount, converted by molar mass.

Key:
[1] = system: E. coli LZ3111; assay: Antibacterial activity, MIC, quinolone resistant strain (Table 2); type: cell-based; conditions: Escherichia coli, LZ3111, read-out: MIC LZ3111
Summary of the method: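 Broth microdilution. Read-out: MIC in μg/mL, taken as lowest concentration with no macroscopically visible growth.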

[2] = system: Acinetobacter baumannii (A. baumannii) BAA747; assay: Antibacterial activity, MIC (Table 4); type: cell-based; conditions: A. baumannii BAA747, read-out: MIC, BAA747
Summary of the method: (§1)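 Compounds are serially diluted in microbroth, bacteria are grown under the test conditions, and growth is then inspected macroscopically. The lowest concentration without visible growth is reported as the MIC (μg/mL).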

[3] = system: Klebsiella pneumoniae (K. pneumoniae) 35657; assay: Antibacterial activity, MIC (Table 4); type: cell-based; conditions: K. pneumoniae 35657, read-out: MIC, 35657
Summary of the method: as §1

[4] = system: Pseudomonas aeruginosa (P. aeruginosa) 27853; assay: Antibacterial activity, MIC (Table 5); type: cell-based; conditions: P. aeruginosa 27853, read-out: MIC, 27853
Summary of the method: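 Microbroth dilution; MIC (μg/mL) = lowest concentration with no macroscopically visible growth.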

[5] = system: K. pneumoniae MXX1232; assay: Antibacterial activity, MIC, resistant strain (Table 4); type: cell-based; conditions: Klebsiella pneumoniae, MXX1232; resistant K. pneumoniae MMX1232, multi-drug resistant clinical isolate; read-out: MIC, MMX1232
Summary of the method: as §1

[6] = system: A. baumannii MXX2240; assay: as above; type: cell-based; conditions: Acinetobacter baumannii, MXX2240; resistant A. baumannii MMX2240, multi-drug resistant clinical isolate; read-out: MIC, MMX2240
Summary of the method: as §1

[7] = system: E. coli 25922; assay: Antibacterial activity, microbroth dilution MIC (Table 1); type: cell-based, Escherichia coli; conditions: Escherichia coli; microbroth dilution; control Gram-negative E. coli 25922 strain; read-out: MIC, 25922
Summary of the method: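 Potency is reported as minimum inhibitory concentration in μg/mL, determined by broth microdilution as the lowest level of compound that stops growth visible to the eye.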

[8] = system: Escherichia coli (E. coli) BAS849; assay: as above; type: cell-based; conditions: microbroth dilution, super sensitive Gram-negative E. coli BAS849, read-out: MIC, BAS849
Summary of the method: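 MIC (μg/mL) is taken as the lowest concentration with no macroscopically visible growth. Strains tested by microbroth dilution: Gram-positive S. aureus 29213, control Gram-negative E. coli 25922, and super-sensitive E. coli BAS849.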

[9] = system: Staphylococcus aureus (S. aureus) 29213; assay: as above; type: cell-based; conditions: microbroth dilution, Gram-positive S. aureus 29213, read-out: MIC, 29213
Summary of the method: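 Read-out: visual absence of growth. The lowest concentration meeting this gives the MIC, expressed in μg/mL, with microbroth dilution as the method.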

Structure (SMILES)	MIC [1]	MIC [2]	MIC [3]	MIC [4]	MIC [5]	MIC [6]	MIC [7]	MIC [8]	MIC [9]
CCc1c(-c2cc3cc(F)c(C)cc3n2C)[nH]c(=O)c(C(=O)O)c1O [Cpd 411, 5-ethyl-6-(5-fluoro-1,6-dimethyl-1H-indol-2-yl)-4-hydroxy-2-oxo-1,2-dihydropyridine-3-carboxylic acid]	12.5 to 150 µg/mL (≈ 36.3 to 436 µM)	12.5 to 150 µg/mL (≈ 36.3 to 436 µM)	12.5 to 150 µg/mL (≈ 36.3 to 436 µM)	12.5 to 150 µg/mL (≈ 36.3 to 436 µM)	12.5 to 150 µg/mL (≈ 36.3 to 436 µM)	12.5 to 150 µg/mL (≈ 36.3 to 436 µM)	12.5 to 150 µg/mL (≈ 36.3 to 436 µM)	1 to 3.5 µg/mL (≈ 2.9 to 10.2 µM)	3.5 to 12.5 µg/mL (≈ 10.2 to 36.3 µM)
CCc1c(-c2ccc3c(c2)cc2n3CC(N)C2)[nH]c(=O)c(C(=O)O)c1O.Cl (stereo not drawn) [Cpd 413, 6-(2-amino-2,3-dihydro-1H-pyrrolo[1,2-a]indol-7-yl)-5-ethyl-4-hydroxy-2-oxo-1,2-dihydropyridine-3-carboxylic acid hydrochloride]	3.5 to 12.5 µg/mL	3.5 to 12.5 µg/mL	< 1 µg/mL	12.5 to 150 µg/mL	12.5 to 150 µg/mL	12.5 to 150 µg/mL	< 1 µg/mL	< 1 µg/mL	12.5 to 150 µg/mL
CCc1c(-c2ccc3c(c2)cc2n3CC(NC)CC2)[nH]c(=O)c(C(=O)O)c1O.Cl (stereo not drawn) [Cpd 414, 5-ethyl-4-hydroxy-6-(7-(methylamino)-6,7,8,9-tetrahydropyrido[1,2-a]indol-2-yl)-2-oxo-1,2-dihydropyridine-3-carboxylic acid hydrochloride]	3.5 to 12.5 µg/mL	3.5 to 12.5 µg/mL	< 1 µg/mL	12.5 to 150 µg/mL	12.5 to 150 µg/mL	12.5 to 150 µg/mL	1 to 3.5 µg/mL	< 1 µg/mL	12.5 to 150 µg/mL
CCc1c(-c2ccc3c(c2)cc2n3CC(NC)C2)[nH]c(=O)c(C(=O)O)c1O.Cl (stereo not drawn) [Cpd 416, 5-ethyl-4-hydroxy-6-(2-(methylamino)-2,3-dihydro-1H-pyrrolo[1,2-a]indol-7-yl)-2-oxo-1,2-dihydropyridine-3-carboxylic acid hydrochloride]	12.5 to 150 µg/mL	12.5 to 150 µg/mL	12.5 to 150 µg/mL	12.5 to 150 µg/mL	12.5 to 150 µg/mL	12.5 to 150 µg/mL	12.5 to 150 µg/mL	3.5 to 12.5 µg/mL	12.5 to 150 µg/mL
Cc1c(-c2ccc3c(c2)cc2n3CC(N(C)C)C2)[nH]c(=O)c(C(=O)O)c1O.Cl (stereo not drawn) [Cpd 417, 6-(2-(dimethylamino)-2,3-dihydro-1H-pyrrolo[1,2-a]indol-7-yl)-4-hydroxy-5-methyl-2-oxo-1,2-dihydropyridine-3-carboxylic acid hydrochloride]	< 1 µg/mL	3.5 to 12.5 µg/mL	12.5 to 150 µg/mL	12.5 to 150 µg/mL	12.5 to 150 µg/mL	< 1 µg/mL	12.5 to 150 µg/mL	1 to 3.5 µg/mL	12.5 to 150 µg/mL
CCc1c(-c2ccc3c(c2)cc2n3CC(N(C)C)C2)[nH]c(=O)c(C(=O)O)c1O.Cl (stereo not drawn) [Cpd 418, 6-(2-(dimethylamino)-2,3-dihydro-1H-pyrrolo[1,2-a]indol-7-yl)-5-ethyl-4-hydroxy-2-oxo-1,2-dihydropyridine-3-carboxylic acid hydrochloride]	< 1 µg/mL	3.5 to 12.5 µg/mL	3.5 to 12.5 µg/mL	12.5 to 150 µg/mL	12.5 to 150 µg/mL	3.5 to 12.5 µg/mL	3.5 to 12.5 µg/mL	3.5 to 12.5 µg/mL	12.5 to 150 µg/mL
CCc1c(-c2ccc3c(c2)cc2n3CC(N(C)CC)C2)[nH]c(=O)c(C(=O)O)c1O (stereo not drawn) [Cpd 419, 5-ethyl-6-(2-(ethyl(methyl)amino)-2,3-dihydro-1H-pyrrolo[1,2-a]indol-7-yl)-4-hydroxy-2-oxo-1,2-dihydropyridine-3-carboxylic acid]	1 to 3.5 µg/mL (≈ 2.53 to 8.85 µM)	3.5 to 12.5 µg/mL (≈ 8.85 to 31.6 µM)	3.5 to 12.5 µg/mL (≈ 8.85 to 31.6 µM)	12.5 to 150 µg/mL (≈ 31.6 to 379 µM)	12.5 to 150 µg/mL (≈ 31.6 to 379 µM)	3.5 to 12.5 µg/mL (≈ 8.85 to 31.6 µM)	3.5 to 12.5 µg/mL (≈ 8.85 to 31.6 µM)	< 1 µg/mL	3.5 to 12.5 µg/mL (≈ 8.85 to 31.6 µM)
CCCN(C)C1Cc2cc3cc(-c4[nH]c(=O)c(C(=O)O)c(O)c4CC)ccc3n2C1 (stereo not drawn) [Cpd 420, 5-ethyl-4-hydroxy-6-(2-(methyl(propyl)amino)-2,3-dihydro-1H-pyrrolo[1,2-a]indol-7-yl)-2-oxo-1,2-dihydropyridine-3-carboxylic acid]	3.5 to 12.5 µg/mL (≈ 8.55 to 30.5 µM)	12.5 to 150 µg/mL (≈ 30.5 to 366 µM)	12.5 to 150 µg/mL (≈ 30.5 to 366 µM)	12.5 to 150 µg/mL (≈ 30.5 to 366 µM)	12.5 to 150 µg/mL (≈ 30.5 to 366 µM)	3.5 to 12.5 µg/mL (≈ 8.55 to 30.5 µM)	3.5 to 12.5 µg/mL (≈ 8.55 to 30.5 µM)	< 1 µg/mL	3.5 to 12.5 µg/mL (≈ 8.55 to 30.5 µM)
Cc1c(-c2ccc3cc[nH]c3c2)[nH]c(=O)c(C(=O)O)c1O [Cpd 424, 4-hydroxy-6-(1H-indol-6-yl)-5-methyl-2-oxo-1,2-dihydropyridine-3-carboxylic acid]	< 1 µg/mL	12.5 to 150 µg/mL (≈ 44 to 528 µM)	12.5 to 150 µg/mL (≈ 44 to 528 µM)	12.5 to 150 µg/mL (≈ 44 to 528 µM)	12.5 to 150 µg/mL (≈ 44 to 528 µM)	< 1 µg/mL	12.5 to 150 µg/mL (≈ 44 to 528 µM)	3.5 to 12.5 µg/mL (≈ 12.3 to 44 µM)	3.5 to 12.5 µg/mL (≈ 12.3 to 44 µM)
CCc1c(-c2ccc3[nH]ccc3c2)[nH]c(=O)c(C(=O)O)c1O [Cpd 425, 5-ethyl-4-hydroxy-6-(1H-indol-5-yl)-2-oxo-1,2-dihydropyridine-3-carboxylic acid]	1 to 3.5 µg/mL (≈ 3.35 to 11.7 µM)	3.5 to 12.5 µg/mL (≈ 11.7 to 41.9 µM)	1 to 3.5 µg/mL (≈ 3.35 to 11.7 µM)	12.5 to 150 µg/mL (≈ 41.9 to 503 µM)	12.5 to 150 µg/mL (≈ 41.9 to 503 µM)	< 1 µg/mL	1 to 3.5 µg/mL (≈ 3.35 to 11.7 µM)	< 1 µg/mL	3.5 to 12.5 µg/mL (≈ 11.7 to 41.9 µM)
Cc1c(-c2ccc3[nH]ccc3c2)[nH]c(=O)c(C(=O)O)c1O [Cpd 426, 4-hydroxy-6-(1H-indol-5-yl)-5-methyl-2-oxo-1,2-dihydropyridine-3-carboxylic acid]	< 1 µg/mL	12.5 to 150 µg/mL (≈ 44 to 528 µM)	12.5 to 150 µg/mL (≈ 44 to 528 µM)	12.5 to 150 µg/mL (≈ 44 to 528 µM)	12.5 to 150 µg/mL (≈ 44 to 528 µM)	< 1 µg/mL	12.5 to 150 µg/mL (≈ 44 to 528 µM)	3.5 to 12.5 µg/mL (≈ 12.3 to 44 µM)	12.5 to 150 µg/mL (≈ 44 to 528 µM)
Cc1c(-c2ccc3c(c2)CC(=O)N3)[nH]c(=O)c(C(=O)O)c1O [Cpd 427, 4-hydroxy-5-methyl-2-oxo-6-(2-oxoindolin-5-yl)-1,2-dihydropyridine-3-carboxylic acid]	12.5 to 150 µg/mL (≈ 41.6 to 500 µM)	12.5 to 150 µg/mL (≈ 41.6 to 500 µM)	12.5 to 150 µg/mL (≈ 41.6 to 500 µM)	12.5 to 150 µg/mL (≈ 41.6 to 500 µM)	12.5 to 150 µg/mL (≈ 41.6 to 500 µM)	12.5 to 150 µg/mL (≈ 41.6 to 500 µM)	12.5 to 150 µg/mL (≈ 41.6 to 500 µM)	12.5 to 150 µg/mL (≈ 41.6 to 500 µM)	12.5 to 150 µg/mL (≈ 41.6 to 500 µM)
CCc1c(-c2ccc3cc(N(C)C)ccc3c2)[nH]c(=O)c(C(=O)O)c1O [Cpd 428, 6-(6-(dimethylamino)naphthalen-2-yl)-5-ethyl-4-hydroxy-2-oxo-1,2-dihydropyridine-3-carboxylic acid]	12.5 to 150 µg/mL (≈ 35.5 to 426 µM)	12.5 to 150 µg/mL (≈ 35.5 to 426 µM)	12.5 to 150 µg/mL (≈ 35.5 to 426 µM)	12.5 to 150 µg/mL (≈ 35.5 to 426 µM)	12.5 to 150 µg/mL (≈ 35.5 to 426 µM)	12.5 to 150 µg/mL (≈ 35.5 to 426 µM)	12.5 to 150 µg/mL (≈ 35.5 to 426 µM)	< 1 µg/mL	< 1 µg/mL
CCc1c(-c2ccc3cc(C)cn3c2)[nH]c(=O)c(C(=O)O)c1O [Cpd 429, 5-ethyl-4-hydroxy-6-(2-methylindolizin-6-yl)-2-oxo-1,2-dihydropyridine-3-carboxylic acid]	12.5 to 150 µg/mL (≈ 40 to 480 µM)	12.5 to 150 µg/mL (≈ 40 to 480 µM)	12.5 to 150 µg/mL (≈ 40 to 480 µM)	12.5 to 150 µg/mL (≈ 40 to 480 µM)	12.5 to 150 µg/mL (≈ 40 to 480 µM)	12.5 to 150 µg/mL (≈ 40 to 480 µM)	12.5 to 150 µg/mL (≈ 40 to 480 µM)	12.5 to 150 µg/mL (≈ 40 to 480 µM)	12.5 to 150 µg/mL (≈ 40 to 480 µM)
